Source: patent publication US10154992B2, “Compounds and methods for treating HIV infection” (THE REGENTS OF THE UNIVERSITY OF CALIFORNIA, priority 2016, dated 2018)
Read-outs that look alike come from different tables or passages of the source.

Legend:
Rev-RRE IIB interaction = biological target: T1, Rev-RRE IIB interaction (Human immunodeficiency virus type 1 group M subtype B, UniProt P04608+P04618); type: cell-based, HIV
T1 construct: with a fusion to HIV Rev (residues 3-70) was generated; expressed in transfected cells
Experimental: A library of approximately 4500 carboxamide-containing compounds was assembled and tested in the reporter cell line at 30 μM. Reporter cells were plated in a white 96-well plate and compounds were added to the cells using a Biomek FX robotic liquid handler (Beckman Coulter). The cells were incubated with the compound for 48 hours then assayed for luciferase activity (Promega Bright Glo). The cytotoxicity of each compound was determined in parallel via MTT-based cell viability assays.
(§1) Cells were counted and plated into white 384-well or 96-well cell-culture treated assay plates and compounds were added. After 48 hours, the cells were prepared for luminescence assays that were performed on a plate reader (Tecan Evolution or MD Analyst). The cytotoxicity of each compound was determined in parallel via MTT-based cell viability assays.
as §1, with “Tat hybrid reporter assay. […] Previously characterized thienopyridines and diaminoacridine were used as controls. Cells” for “Cells”, “384-well” for “384-well or 96-well”, “lumincescence” for “luminescence”
The RRE IIB-Rev screening cell line was plated in 384-well assay plates and compounds were added to the cells to a final concentration of 30 μM. Cells were prepared and assayed for luciferase activity. […] In parallel, MTT cell viability assays were performed to assess the toxicity of compounds and minimize the level of false positives.

[1] = system: HIV-1 provirus in U1 cells; assay: U1 activation (latency) assay, p24 ELISA; type: cell-based; settings: for IC50: Human immunodeficiency virus 1
In short: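 PHA-activated U1 cells (latent integrated HIV-1 provirus, 250,000/well) treated with compound at final 1 to 10,000 nM for 3 days; virus production measured by p24 ELISA of cell-free supernatant. Cell viability assessed by MTT in parallel cultures.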

T1 sequence (P04608 whole entry, looked up, the tested form may be a part): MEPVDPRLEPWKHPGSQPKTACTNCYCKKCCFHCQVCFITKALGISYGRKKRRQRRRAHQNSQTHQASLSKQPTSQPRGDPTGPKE
T1 sequence (P04618 whole entry, looked up, the tested form may be a part): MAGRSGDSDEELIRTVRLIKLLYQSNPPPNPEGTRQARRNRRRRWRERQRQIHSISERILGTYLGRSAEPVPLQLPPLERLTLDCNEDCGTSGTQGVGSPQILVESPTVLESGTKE

`NC(=O)c1cc2c(-c3ccc4c(c3)CCO4)cncc2s1` [Compound 4e, 4-(2,3-dihydro-1-benzofuran-5-yl)thieno[2,3-c]pyridine-2-carboxamide] was tested, and the “activity in the Tat-hybrid reporter assay” value (Rev-RRE IIB interaction) was “low-nM potency”, the “potency in the U1 assay” value [1] was “low-nM potency” and the IC50 ([1]; Table 2, read-out: U1 cell IC50) was under 100 nM. For the same compound, the IC50 ([1]; read-out: IC50 in the U1 assay) was 9 nM.
